The METLIN SMRT retention time set (Domingo-Almenara et al. 2019)

Test: gradient 5% acetonitrile 3 min, to 50% in 2 min, to 85% in 15 min, held 3 min, 100 µL/min
Conditions: column: Zorbax Extend-C18 2.1 x 50 mm; eluents: water / acetonitrile, 0.1% formic acid
How it was run: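 Values are retention times taken from adduct peaks that software picked and an analyst inspected. The pure standards were run as mixtures of ~100 molecules on HPLC linked to a quadrupole time-of-flight mass spectrometer, in positive and negative ionization mode. A Zorbax Extend-C18 column (2.1 × 50 mm, 1.8 μm) was used at 100 μL/min with water and acetonitrile, each including 0.1% formic acid.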

Row | RP-LC retention time | Compound
1 | 1160 s | C#CCOc1ccc2c(c1)c(-c1ccc(C(C)C)cc1)nc(=O)n2C(C)C
2 | 821 s | Cn1ccc2cc(S(=O)(=O)N3CCC(C(=O)N4CCN(c5ncccn5)CC4)CC3)ccc21
3 | 690 s | COC1CCOC2(CCN(C(=O)Nc3ccc4c(c3)OCCO4)CC2)C1 (stereo unspecified)
4 | 884 s | COc1ccc(CN2C(=O)CSc3c(c4ccccc4n3C)C2C(=O)NCCCOC(C)C)cc1 (stereo unspecified)
5 | 611 s | Cc1nccn1C1CN(C(=O)CCCc2c[nH]c3ccccc23)C1
6 | 918 s | CCCn1c(=O)sc2cc(S(=O)(=O)N3CCC(C(=O)Nc4ccc(OC)cc4)CC3)ccc21
7 | 663 s | CCCNC(=O)C1CCN(c2ccc(SCC(=O)NCc3ccc(C)c(C)c3)nn2)CC1
8 | 807 s | CC(C)n1cnc(S(=O)(=O)N2CCC(C(=O)N3CCN(c4ccccc4F)CC3)CC2)c1
9 | 770 s | Fc1ccc(Cc2nc(-c3ccc4nncn4c3)no2)cc1
10 | 778 s | COc1cccc(CNC(=O)Cn2c(=O)c3c(C(=O)N4CCCCC4)cc(C)nc3n(C)c2=O)c1
11 | 882 s | CCn1nc(C)n2cc(S(=O)(=O)NCc3cccc(C)c3)cc2c1=O
12 | 1150 s | O=c1c2cnn(-c3ccc(Br)cc3)c2ncn1Cc1nc(-c2ccccc2)no1
13 | 602 s | CN1CCCC1c1nc(C2CN(S(=O)(=O)c3ccc(C#N)cc3)C2)no1 (stereo unspecified)
14 | 735 s | COC(=O)c1cccc(NC(=O)C2CCCN(c3nnc4ccc(Cl)cn34)C2)c1 (stereo unspecified)
15 | 616 s | CN(CCCNC(=O)C1CCCN(c2ncnc3c2nc2n3CCCCC2)C1)Cc1ccccc1 (stereo unspecified)
16 | 1070 s | O=S(=O)(c1cc(-c2nnc(C3CCC3)o2)co1)N1CCN(c2ccccc2F)CC1
17 | 938 s | COc1ccc(C(=O)NC2(c3nc(-c4cccnc4)no3)CCCCC2)cc1F
18 | 668 s | O=C(Nc1ccccc1)[C@@H]1OCCN(C2CC2)[C@H]1c1ccccc1
19 | 901 s | CCCN(CC1CCOC1)C(=O)Nc1cc(Cl)ccc1C (stereo unspecified)
20 | 1110 s | Cc1cccc(-c2nc(C3CC(=O)N(c4ccc(Cl)cc4)C3)no2)c1 (stereo unspecified)
21 | 1120 s | COc1ccc(N2CCN(C(=O)c3cc4c(-c5cccs5)nn(-c5ccccc5)c4n3C)CC2)cc1
22 | 679 s | COCCNC(=O)C1c2ccccc2C(=O)N(C)C1c1cccs1 (stereo unspecified)

Row | RP-LC retention time | Compound
23 | 1060 s | O=C(Nc1nccs1)C1CCCN(S(=O)(=O)c2cc(-c3noc(C4CCCC4)n3)cs2)C1 (stereo unspecified)
24 | 719 s | CC1CCN(c2cc(-n3cnc(C(=O)N4CCSCC4)c3)ncn2)CC1
25 | 1350 s | CCn1cc(-c2nc(C(=O)Nc3ccc(Cl)cc3F)cs2)c2cccnc21
26 | 807 s | CCC(=O)N(C1CCOCC1)C1CCN(S(=O)(=O)c2cccnc2)CC1
27 | 798 s | Cc1cc(-n2c(C)nc3ccccc3c2=O)ccc1NC(=O)Cc1ccccc1F
28 | 798 s | CCn1c(SC)nnc1-c1nn(C)c2c1CN(C(=O)CCc1ccccc1)CC2
29 | 866 s | Cc1ccc2nc(NC(=O)CSc3nnc(C4COc5ccccc5O4)o3)sc2c1 (stereo unspecified)
30 | 911 s | Cc1ccc(N2CC(c3nc(-c4ccc5c(c4)OCO5)no3)CC2=O)cc1C (stereo unspecified)
31 | 705 s | Cc1cc(-n2nnc(C(=O)O)c2C)ccc1F
32 | 722 s | C1CCc2nc3c(nc2C1)CCCC3
33 | 731 s | Cc1ccc2c(c1)C(=O)NC1(CCN(C(=O)NCc3ccccc3)CC1)N2C
34 | 1030 s | Cc1ccc(NC(=O)c2cccn2Cc2noc(C3CC3)n2)c(Cl)c1
35 | 871 s | CC1=C(c2ccc(Cl)cc2)S(=O)(=O)N=C1N1CCCN(C(=O)NC(C)(C)C)CC1
36 | 866 s | Cc1c(F)cccc1NC(=O)Nc1ccc(Nc2cc(-n3cccn3)ncn2)cc1
37 | 947 s | CC(C)n1c(=O)n(CC(=O)N2CCCc3ccccc32)c2cc(S(=O)(=O)N3CCCC3)ccc21
38 | 559 s | c1ccc(OCc2nc3ccccc3n2CC2CCN(Cc3ccccn3)CC2)cc1
39 | 591 s | O=S(=O)(Nc1ccncc1)c1cccc(C(F)(F)F)c1
40 | 683 s | CCC(CO)NCc1ccc(-c2ccc(Br)cc2)o1 (stereo unspecified)
41 | 670 s | Cc1ccc(-n2nnc(C(=O)O)c2-c2ccccn2)cc1
42 | 1210 s | Cc1ccc(NS(=O)(=O)c2cc(-c3nc(C(C)(C)C)cs3)cs2)cc1
43 | 1130 s | CCCn1nnc(NCc2ccc(-c3ccc(C)c(Cl)c3)o2)n1
44 | 608 s | Cc1ccc(N2CCC(C(=O)Nc3ccc4c(c3)Cc3ccccc3-4)CC2)nn1

Row | RP-LC retention time | Compound
45 | 1230 s | CCCOc1nc2ccccc2nc1N1CCCC(C(=O)NC(C)c2ccccc2)C1 (stereo unspecified)
46 | 717 s | COc1cc2c(cc1NC(=O)c1cccs1)n(C)c(=O)n2C
47 | 1150 s | CCc1ccc(NC(=O)N2CCc3nc(-c4ccc(Cl)cc4)ncc3C2)cc1
48 | 719 s | O=C(NCCn1c(=O)n(Cc2ccc(F)cc2)c2cccnc21)c1ccco1
49 | 627 s | O=C(Cn1c(=O)c2cccn2c2ccc(F)cc21)NCCCN1CCCCCC1
50 | 700 s | COc1cccc(N2CCN(C(=O)c3cc4c(=O)n(C)ccc4n3C)CC2)c1
51 | 921 s | O=c1n(Cc2ccc3c(c2)OCO3)nc2c(S(=O)(=O)N3CCCCCC3)cccn12
52 | 912 s | COc1cccc(Nc2c(-c3ccc(SC)cc3)nc3cnccn23)c1
53 | 873 s | COc1cc(OC)cc(C(=O)Nc2nc(C(=O)NC(C)c3ccccc3)cs2)c1 (stereo unspecified)
54 | 972 s | COC(=O)c1sc2ncccc2c1NC(=O)c1cccc(C)c1
55 | 755 s | CCOC(=O)N1CCN(C(=O)C2CC2c2ccc(F)cc2)CC1 (stereo unspecified)
56 | 566 s | O=C(NCc1ccsc1)C(=O)Nc1cccnc1
57 | 607 s | O=C(C1CCCN(S(=O)(=O)c2ccc(-c3ccn[nH]3)o2)C1)N1CCN(c2ccccn2)CC1 (stereo unspecified)
58 | 682 s | O=C(NCCc1ccccc1)N1CCCC(Cn2c(C3CC3)nc3cccnc32)C1 (stereo unspecified)
59 | 629 s | CCOC(=O)C1CCN(C(=O)C2CCN(c3cncnc3N3CCCC3)CC2)CC1
60 | 692 s | CCCN1CCN(C(=O)C(C)n2nc(C)c3nn(-c4ccccc4)c(-n4cccc4)c3c2=O)CC1 (stereo unspecified)
61 | 993 s | CCn1c(=O)c2ccccc2n(Cc2nc(-c3ccc(OC)cc3)no2)c1=O
62 | 897 s | O=C(CN1C(=O)CCCc2cc(S(=O)(=O)N3CCCC3)ccc21)Nc1ccc(Cl)cc1F
63 | 650 s | O=C(NCc1cc(F)ccc1F)c1ccc2ncnc(N3CCCC3)c2c1
64 | 634 s | Cc1ccc2c(Nc3ccc(Cl)cc3)c(C(=O)N3CCSCC3)cnc2n1
65 | 1110 s | Cc1cc(C)n(C(C[N+](=O)[O-])c2ccc(Cl)cc2Cl)n1 (stereo unspecified)
66 | 668 s | O=C(Nc1cccc(-c2cn3cccnc3n2)c1)c1c(F)cccc1F
